{"source": "PubChem BioAssay (NCI)", "assay_in_all_cases": "NCI-60 cell line screen, 384-well format", "key": {"DU-145 prostate": {"tested_on": "DU-145 prostate"}, "MDA-MB-435 melanoma": {"tested_on": "MDA-MB-435 melanoma"}, "UO-31 renal": {"tested_on": "UO-31 renal"}, "HOP-62 NSCLC": {"tested_on": "HOP-62 NSCLC"}, "K-562 leukemia": {"tested_on": "K-562 leukemia"}, "NCI-H226 lung": {"tested_on": "NCI-H226 lung"}, "U251 glioblastoma": {"tested_on": "U251 glioblastoma"}, "A498 renal": {"tested_on": "A498 renal"}, "SF-539 CNS": {"tested_on": "SF-539 CNS"}, "SF-295 CNS": {"tested_on": "SF-295 CNS"}, "RXF 393 renal": {"tested_on": "RXF 393 renal"}, "COLO 205 colon": {"tested_on": "COLO 205 colon"}, "NCI-H322M lung": {"tested_on": "NCI-H322M lung"}}, "note": "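GI50 = concentration required for 50% inhibition of growth. TGI is the concentration that stops growth completely.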"}
{"compound": "CC(=O)N1CCC(Nc2cc(C(=O)NC[C@H](O)CN3CCc4ccccc4C3)ncn2)CC1", "values": [{"measurement": "GI50", "setting": "DU-145 prostate", "result": "> 100", "unit": "µM"}, {"measurement": "TGI", "setting": "DU-145 prostate", "result": "> 100", "unit": "µM"}, {"measurement": "GI50", "setting": "MDA-MB-435 melanoma", "result": "> 100", "unit": "µM"}, {"measurement": "TGI", "setting": "MDA-MB-435 melanoma", "result": "> 100", "unit": "µM"}, {"measurement": "GI50", "setting": "UO-31 renal", "result": "> 100", "unit": "µM"}, {"measurement": "TGI", "setting": "UO-31 renal", "result": "> 100", "unit": "µM"}, {"measurement": "GI50", "setting": "HOP-62 NSCLC", "result": "> 100", "unit": "µM"}, {"measurement": "TGI", "setting": "HOP-62 NSCLC", "result": "> 100", "unit": "µM"}, {"measurement": "GI50", "setting": "K-562 leukemia", "result": "> 100", "unit": "µM"}, {"measurement": "TGI", "setting": "K-562 leukemia", "result": "> 100", "unit": "µM"}, {"measurement": "GI50", "setting": "NCI-H226 lung", "result": "> 100", "unit": "µM"}, {"measurement": "TGI", "setting": "NCI-H226 lung", "result": "> 100", "unit": "µM"}, {"measurement": "GI50", "setting": "U251 glioblastoma", "result": "> 100", "unit": "µM"}, {"measurement": "TGI", "setting": "U251 glioblastoma", "result": "> 100", "unit": "µM"}, {"measurement": "GI50", "setting": "A498 renal", "result": "> 100", "unit": "µM"}, {"measurement": "TGI", "setting": "A498 renal", "result": "> 100", "unit": "µM"}, {"measurement": "GI50", "setting": "SF-539 CNS", "result": "> 100", "unit": "µM"}, {"measurement": "TGI", "setting": "SF-539 CNS", "result": "> 100", "unit": "µM"}, {"measurement": "GI50", "setting": "SF-295 CNS", "result": "> 100", "unit": "µM"}, {"measurement": "TGI", "setting": "SF-295 CNS", "result": "> 100", "unit": "µM"}, {"measurement": "GI50", "setting": "RXF 393 renal", "result": "> 100", "unit": "µM"}, {"measurement": "TGI", "setting": "RXF 393 renal", "result": "> 100", "unit": "µM"}, {"measurement": "GI50", "setting": "COLO 205 colon", "result": "> 100", "unit": "µM"}, {"measurement": "TGI", "setting": "COLO 205 colon", "result": "> 100", "unit": "µM"}, {"measurement": "GI50", "setting": "NCI-H322M lung", "result": "> 100", "unit": "µM"}, {"measurement": "TGI", "setting": "NCI-H322M lung", "result": "> 100", "unit": "µM"}]}
